Measured values: PubChem BioAssay AID1794826

Target: Sodium/myo-inositol cotransporter 2 (Homo sapiens) (UniProt Q8WWX8)
Assay: SLC5A11 myo-inositol cotransport substrate activity, dose response, cell-based, membrane potential dye, HEK-293, SLC5A11 overexpression (AID 1794826)
Details: HEK-293 SLC5A11 OE, FLIPR membrane potential dye

Sequence of Sodium/myo-inositol cotransporter 2 (Homo sapiens) (Q8WWX8 whole entry, looked up): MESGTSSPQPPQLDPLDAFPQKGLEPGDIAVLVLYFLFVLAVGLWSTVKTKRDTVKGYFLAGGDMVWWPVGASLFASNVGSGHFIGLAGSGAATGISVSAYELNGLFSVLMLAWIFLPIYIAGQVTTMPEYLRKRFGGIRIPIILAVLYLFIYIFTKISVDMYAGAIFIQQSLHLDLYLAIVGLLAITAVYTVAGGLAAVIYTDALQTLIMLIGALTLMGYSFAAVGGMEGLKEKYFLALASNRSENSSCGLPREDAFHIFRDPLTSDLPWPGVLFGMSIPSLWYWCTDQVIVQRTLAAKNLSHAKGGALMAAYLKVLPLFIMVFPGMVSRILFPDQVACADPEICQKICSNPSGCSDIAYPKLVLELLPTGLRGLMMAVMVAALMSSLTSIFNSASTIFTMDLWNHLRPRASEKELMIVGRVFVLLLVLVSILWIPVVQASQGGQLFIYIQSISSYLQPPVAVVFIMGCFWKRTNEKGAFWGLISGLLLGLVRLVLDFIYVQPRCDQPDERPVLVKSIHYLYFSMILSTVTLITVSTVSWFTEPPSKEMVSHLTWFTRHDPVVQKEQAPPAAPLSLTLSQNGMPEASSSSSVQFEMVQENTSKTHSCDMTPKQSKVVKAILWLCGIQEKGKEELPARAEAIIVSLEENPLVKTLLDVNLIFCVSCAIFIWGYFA

EC50: 104 µM
SMILES: OC1C(O)C(O)C(O)C(O)C1O (stereo unspecified)
